Patent publication US6624119B1, “3-[Benz(ox/thi)azol-7-yl]-1h-pyrimidine-2,4-diones” (BASF Aktiengesellschaft, priority 1998, dated 2003)

Tests used:
Assay in all cases: greenhouse herbicidal test, post-emergence
Format in all cases: in vivo
Abutilon theophrasti = Abutilon theophrasti (velvet leaf), application rates 15.6 or 7.8 kg/ha a.s., 2 to 4 weeks
Excerpt: (§1) The growing containers used were plastic pots containing loamy sand with approximately 3.0% of humus as the substrate. The seeds of the test plants were sown separately for each species.
(§2) For the post-emergence treatment, the test plants were first grown to a plant height of 3 to 15 cm, depending on the growth habit, and only then treated with the active ingredients which had been suspended or emulsified in water. The test plants were either sown directly and grown in the same containers or first grown separately as seedlings and transplanted into the test containers a few days prior to treatment. The rate of application for the post-emergence treatment was only 15.6 or […] of a.s. (active substance).
(§3) Depending on the species, the plants were kept at 10-25° C. or 20-35° C. The test period extended over 2 to 4 weeks. During this time, the plants were tended, and their response to the individual treatments was evaluated.
(§4) Evaluation was carried out using a scale from 0 to 100. 100 means no emergence of the plants or complete destruction of at least the aerial parts, and 0 means no damage or normal course of growth.
(§5) The plants used in the greenhouse experiments belonged to the following species: […]

Amaranthus retroflexus = Amaranthus retroflexus (redroot pigweed), application rates 15.6 or 7.8 kg/ha a.s., 2 to 4 weeks
Excerpt: as §1, §2, §3, §4, §5

Chenopodium album = Chenopodium album (lambsquarters), application rates 15.6 or 7.8 kg/ha a.s., 2 to 4 weeks
Excerpt: as §1, §2, §3, §4, §5

Solanum nigrum = Solanum nigrum (black nightshade), application rates 15.6 or 7.8 kg/ha a.s., 2 to 4 weeks
Excerpt: as §1, §2, §3, §4, §5

Measured: efficacy (complete destruction; scale 0 to 100)

Cn1c(C(F)(F)F)cc(=O)n(-c2c(F)cc(Cl)c3nc(C4CCCC4)oc23)c1=O [Ia.3, 3-[4-Chloro-2-cyclopentyl-6-fluorobenzoxazol-7-yl]-1-methyl-6-trifluoromethyl-2,4-(1H,3H)-pyrimidinedione]
100%: all assays above
